# Test system: laying hens
# Experiment: Assessment of shell quality in laying hen farms
# Format: in vivo
# Conditions: egg production
# Protocol: In order to assess the effect of the use of the nutritional supplement on the calcium and phosphorus absorption in laying hens, several studies on laying hens from different farms were carried out. The studies comprised the analysis of animals before and after the feed with the formulation containing the nutritional supplement comprising ingredients shown in Table 3.
# More specifically, an assessment of the shell quality in laying hens was conducted by collecting the eggs before and after feeding the animals with the formulation containing the nutritional supplement. Hens from farms in the states of Espírito Santo (350,000 hens), São Paulo (2,000,000 hens), Paraná (1,100,000 hens), and Minas Gerais ([…]) were fed with a pair of feed formulas, one without and another one with the nutritional supplement of the present invention.
# Laid eggs were collected after feeding the hens with regular feed and later with the feed containing the emulsifier of the present invention. Data obtained from the analysis of the eggs from the farms in Espírito Santo, São Paulo, Paraná, and Minas Gerais are included in Tables 6 to 9 below, the beneficial effects on the shells being emphasized thereof, among them the reduction in cracks in chicken eggs.
smiles,measurement,setting,value
"CCCCCC[C@@H](O)C/C=C\CCCCCCCC(=O)[O-].[Na+] [emulsifier derived from ricinoleic acid, Sodium Ricinolate]",increase of the amount of saleable eggs,,up to 5%
same,eggs produced daily lost by shell problems,usual loss up to 7%,below 2%

# From patent US20260107957A1, “USE OF AN EMULSIFIER DERIVED FROM RICINOLEIC ACID TO INCREASE THE ABSORPTION OF CALCIUM AND PHOSPHORUS IN THE DIGESTIVE TRACT OF FARM ANIMALS” (priority 2023, published 2026)
